According to PubChem BioAssay AID330 (DTP/NCI, 2004):
Where “and” joins values, the source holds several entries; their conditions need not be identical. Identical values can stand only once. Inconclusive results and toxic doses are left out. How the source made its calls: active means survival T/C of 150% or more; inactive means T/C below 125% in these data.

Test system: P388 leukemia ip, CD2F1 mice, survival T/C
Assay: NCI In Vivo Anticancer Drug Screen. Data for tumor model P388 Leukemia (intraperitoneal) in CD2F1 (CDF1) mice
Details: endpoint: median survival time, higher = longer survival
Outline: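 Mice carrying the transplanted tumor received test compound or vehicle. Survival was recorded in each group, and the value is the treated-group measurement divided by that of the vehicle-treated control group.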

[1] = dose: 50.0 mg/kg/injection, schedule: Q01DX009 (ip), vehicle: saline
[2] = dose: 100.0 mg/kg/injection, schedule: Q01DX009 (ip), vehicle: saline
[3] = dose: 50.0 mg/kg/injection, schedule: Q01DX009 (ip), vehicle: saline with Tween-80
[4] = dose: 100.0 mg/kg/injection, schedule: Q01DX009 (ip), vehicle: saline with Tween-80
[5] = dose: 100.0 mg/kg/injection, schedule: Q01DX001 (ip), vehicle: saline
[6] = dose: 200.0 mg/kg/injection, schedule: Q01DX001 (ip), vehicle: saline
[7] = dose: 400.0 mg/kg/injection, schedule: Q01DX001 (ip), vehicle: saline
[8] = dose: 100.0 mg/kg/injection, schedule: Q01DX009 (ip), vehicle: other
[9] = dose: 200.0 mg/kg/injection, schedule: Q01DX009 (ip), vehicle: other
[10] = dose: 60.0 mg/kg/injection, schedule: Q01DX005 (ip), vehicle: saline
[11] = dose: 120.0 mg/kg/injection, schedule: Q01DX005 (ip), vehicle: saline
[12] = dose: 240.0 mg/kg/injection, schedule: Q01DX005 (ip), vehicle: saline

Measured: T/C

O=C1C=CC(=O)C1=Cc1ccc([N+](=O)[O-])cc1
inactive: dose: 2.5 mg/kg/injection, schedule: Q04DX002 (ip), vehicle: saline with Tween-80 100 % of control | dose: 5.0 mg/kg/injection, schedule: Q04DX002 (ip), vehicle: saline with Tween-80 104 % of control | dose: 10.0 mg/kg/injection, schedule: Q04DX002 (ip), vehicle: saline with Tween-80 101 % of control | dose: 25.0 mg/kg/injection, schedule: Q04DX002 (ip), vehicle: saline with Tween-80 96 % of control | dose: 50.0 mg/kg/injection, schedule: Q04DX002 (ip), vehicle: saline with Tween-80 98 % of control

CC(=O)c1cc(C)oc1C
inactive: dose: 25.0 mg/kg/injection, schedule: Q01DX009 (ip), vehicle: saline 100 % of control | [1] 100 % of control and 111 % of control and 112 % of control | [2] 109 % of control and 111 % of control and 112 % of control | dose: 400.0 mg/kg/injection, schedule: Q01DX009 (ip), vehicle: saline 116 % of control

O=C(C[N+](=O)[O-])c1ccc(Cl)cc1
inactive: [3] 87 % of control | [4] 91 % of control

COc1cc(C2c3cc4c(cc3CCN2C(=O)c2ccccc2)OCO4)cc(OC)c1OC (stereo not drawn)
inactive: dose: 50.0 mg/kg/injection, schedule: Q01DX005 (ip), vehicle: Klucel (hydroxypropylcellulose) (HPC) 93 % of control | dose: 100.0 mg/kg/injection, schedule: Q01DX005 (ip), vehicle: Klucel (hydroxypropylcellulose) (HPC) 91 % of control | dose: 200.0 mg/kg/injection, schedule: Q01DX005 (ip), vehicle: Klucel (hydroxypropylcellulose) (HPC) 93 % of control

CC1CCC2OC23C(=O)C2OC2C(C(C)(C)O)C13C (stereo not drawn)
inactive: dose: 100.0 mg/kg/injection, schedule: Q01DX001 (ip), vehicle: Klucel (hydroxypropylcellulose) (HPC) 104 % of control | dose: 200.0 mg/kg/injection, schedule: Q01DX001 (ip), vehicle: Klucel (hydroxypropylcellulose) (HPC) 101 % of control | dose: 400.0 mg/kg/injection, schedule: Q01DX001 (ip), vehicle: Klucel (hydroxypropylcellulose) (HPC) 100 % of control

COC(=O)n1c(=O)ccc(=O)n1C(=O)OC
inactive: dose: 50.0 mg/kg/injection, schedule: Q01DX001 (ip), vehicle: saline 100 % of control and 103 % of control | [5] 98 % of control and 100 % of control and 106 % of control | [6] 100 % of control and 106 % of control and 115 % of control | [7] 100 % of control and 112 % of control and 122 % of control

O=C1COC(c2ccccc2O)=NN1Cc1ccccc1
inactive: [3] 94 % of control | [4] 92 % of control | dose: 200.0 mg/kg/injection, schedule: Q01DX009 (ip), vehicle: saline with Tween-80 99 % of control

c1ccc(C2=C(c3ccccc3)c3ccccc3CO2)cc1
inactive: [5] 105 % of control | [6] 100 % of control | [7] 100 % of control

CCCCCC(=O)OC(C)Cl (stereo not drawn)
inactive: [1] 99 % of control | [2] 97 % of control | dose: 200.0 mg/kg/injection, schedule: Q01DX009 (ip), vehicle: saline 106 % of control

O=C(Nc1cccc2ccccc12)c1cc2c(cc1Br)OCO2
inactive: dose: 12.5 mg/kg/injection, schedule: Q01DX009 (ip), vehicle: distilled water + Tween-80 104 % of control | dose: 25.0 mg/kg/injection, schedule: Q01DX009 (ip), vehicle: distilled water + Tween-80 95 % of control | dose: 50.0 mg/kg/injection, schedule: Q01DX009 (ip), vehicle: distilled water + Tween-80 92 % of control | dose: 200.0 mg/kg/injection, schedule: Q01DX009 (ip), vehicle: distilled water + Tween-80 90 % of control

O=C1c2ccccc2C(=O)c2c1cccc2N1C(=O)C=CC1=O
inactive: dose: 60.0 mg/kg/injection, schedule: Q01DX005 (ip), vehicle: saline with Tween-80 101 % of control | dose: 120.0 mg/kg/injection, schedule: Q01DX005 (ip), vehicle: saline with Tween-80 95 % of control | dose: 240.0 mg/kg/injection, schedule: Q01DX005 (ip), vehicle: saline with Tween-80 93 % of control

Cc1nc(C(=O)O)c(C)c(=O)[nH]1
inactive: dose: 0.78 mg/kg/injection, schedule: Q01DX009 (ip), vehicle: water 96 % of control | dose: 0.78 mg/kg/injection, schedule: Q04DX003 (ip), vehicle: water 91 % of control | dose: 1.56 mg/kg/injection, schedule: Q01DX009 (ip), vehicle: water 96 % of control | dose: 1.56 mg/kg/injection, schedule: Q04DX003 (ip), vehicle: water 91 % of control | dose: 3.13 mg/kg/injection, schedule: Q01DX009 (ip), vehicle: water 112 % of control | dose: 3.13 mg/kg/injection, schedule: Q04DX003 (ip), vehicle: water 98 % of control | dose: 6.25 mg/kg/injection, schedule: Q01DX009 (ip), vehicle: water 119 % of control | dose: 6.25 mg/kg/injection, schedule: Q04DX003 (ip), vehicle: water 100 % of control | dose: 12.5 mg/kg/injection, schedule: Q01DX009 (ip), vehicle: water 114 % of control | dose: 12.5 mg/kg/injection, schedule: Q04DX003 (ip), vehicle: water 101 % of control

COc1c(O)ccc([N+](=O)[O-])c1OC
inactive: dose: 12.5 mg/kg/injection, schedule: Q01DX009 (ip), vehicle: other 96 % of control | dose: 25.0 mg/kg/injection, schedule: Q01DX009 (ip), vehicle: other 98 % of control | dose: 50.0 mg/kg/injection, schedule: Q01DX009 (ip), vehicle: other 105 % of control | [8] 102 % of control | [9] 97 % of control

CCOc1nc(C)c(C)c(-c2ccc(OC)c(OC)c2OCc2ccccc2)c1C#N
inactive: dose: 0.05 mg/kg/injection, schedule: Q01DX009 (ip), vehicle: other 117 % of control | dose: 0.1 mg/kg/injection, schedule: Q01DX009 (ip), vehicle: other 96 % of control | dose: 0.2 mg/kg/injection, schedule: Q01DX009 (ip), vehicle: other 101 % of control | dose: 0.4 mg/kg/injection, schedule: Q01DX009 (ip), vehicle: other 100 % of control and 107 % of control | dose: 0.8 mg/kg/injection, schedule: Q01DX009 (ip), vehicle: other 110 % of control | dose: 1.6 mg/kg/injection, schedule: Q01DX009 (ip), vehicle: other 117 % of control | dose: 3.2 mg/kg/injection, schedule: Q01DX009 (ip), vehicle: other 115 % of control | dose: 6.4 mg/kg/injection, schedule: Q01DX009 (ip), vehicle: DMSO 103 % of control | dose: 6.4 mg/kg/injection, schedule: Q01DX009 (ip), vehicle: other 110 % of control | dose: 12.8 mg/kg/injection, schedule: Q01DX009 (ip), vehicle: DMSO 94 % of control | dose: 25.6 mg/kg/injection, schedule: Q01DX009 (ip), vehicle: DMSO 94 % of control | dose: 51.2 mg/kg/injection, schedule: Q01DX009 (ip), vehicle: DMSO 97 % of control | [8] 104 % of control | dose: 102.0 mg/kg/injection, schedule: Q01DX009 (ip), vehicle: DMSO 94 % of control | [9] 115 % of control | dose: 400.0 mg/kg/injection, schedule: Q01DX009 (ip), vehicle: other 100 % of control

CN(CCNN1CCCC1)Cc1ccccc1Cl
inactive: dose: 12.5 mg/kg/injection, schedule: Q01DX005 (ip), vehicle: saline 102 % of control | dose: 25.0 mg/kg/injection, schedule: Q01DX005 (ip), vehicle: saline 105 % of control | dose: 50.0 mg/kg/injection, schedule: Q01DX005 (ip), vehicle: saline 102 % of control and 108 % of control | dose: 100.0 mg/kg/injection, schedule: Q01DX005 (ip), vehicle: saline 103 % of control

CC(=O)/C(=C\c1cccs1)C(=O)CCN(C)C
inactive: [10] 106 % of control and 111 % of control | [11] 113 % of control and 122 % of control | [12] 91 % of control

CC(C)(C)B1N(c2ccccc2)N=NN1C(C)(C)C
inactive: [10] 100 % of control | [11] 99 % of control and 88 % of control | [12] 96 % of control and 98 % of control
